Entries after “also recorded” stand apart in the source; their conditions may differ. Where two headings read alike, the source gives them in different places.
What was measured:
cellular cAMP = assay: GloSensor cAMP assay in FRT cells; assay type: cell-based, rat; conditions: 5 μM compound, 10 min, without or with 100 nM forskolin
Method: Intracellular cAMP activity was measured using a GloSensor luminescence assay (Promega Corp., Madison, Wisconson, USA). FRT null cells were stably transfected with the pGloSensor cAMP plasmid and plated onto white 96-well microplates and grown to confluence. Cells were washed three times with PBS and incubated with 5 μM CFTRact-J027 for 10 min in the absence and presence of 100 nM forskolin. cAMP was assayed according to the manufacturer's instructions.
Intracellular cAMP activity was measured using a GloSensor luminescence assay (Promega Corp., Madison, Wis., USA). FRT cells stably transfected with the pGloSensor cAMP plasmid (Promega Corp.) were cultured in white 96-well microplates (Corning Costar) overnight. Cells were then washed three times with PBS and incubated with 5 μM test compound for 10 min in the absence and presence of 100 nM forskolin.
cAMP assay. Intracellular cAMP activity was measured using a GloSensor luminescence assay (Promega Corp., Madison, Wisconson, USA). FRT null cells were stably transfected with the pGloSensor cAMP plasmid and plated onto white 96-well microplates and grown to confluence. […]
cAMP and cytotoxicity assays. Intracellular cAMP activity was measured using a GloSensor luminescence assay (Promega Corp., Madison, Wis., USA). […]

loperamide-treated mice = assay: Loperamide-induced mouse model of constipation; conditions: for ED50: Mus musculus
[1] = system: enteroids generated from normal human duodenum and jejunum; assay: Swelling measurements in human enteroids; assay type: cell-based; conditions: pretreatment 10 min, with 0.1 or 0.2 μM forskolin
Method: Tissues from human subjects were obtained under approval of the Johns Hopkins University School of Medicine Institutional Review Board (protocol NA_00038329). Duodenal and jejunal biopsy specimens were obtained from adults during routine endoscopy at Johns Hopkins Hospital. Crypt isolation, enteroid propagation and culture were as described (16). For swelling measurements enteroids were seeded in 35-mm dishes with bottom coverglass with 1.5 mL media. On the day of the experiment the media was replaced with 3 mL Advanced DMEM/F12 and enteroids were incubated with 1 mM calcein greenacetoxymethyl ester for 1 h at 37° C. to label cytoplasm. Relative enteroid volume following addition of specified concentrations of forskolin was measured using a laser scanning confocal microscope (Fluoview FV10i-LIV; Olympus) at 37° C., 5% CO2, and 95% relative humidity. In some studies CFTRact-J027 was added 10 min prior to forskolin. Images were acquired every 10 min and analyzed with MetaMorph version 7.7 software (Olympus) to quantify enteroid areas.

whole-gut transit = assay: Whole-gut transit time in mice; assay type: in vivo, mouse
Method: Whole-gut transit time was determined using an orally administered marker (200 μL, 5% Evans Blue, 5% gum Arabic) and measuring the time of its appearance in stool. Mice were administered loperamide and CFTRact-J027 (10 mg/kg) or vehicle intraperitoneally at zero time. For ex vivo contractility measurements, mice were euthanized by avertin overdose (200 mg/kg, 2,2,2-tribromethanol, Sigma-Aldrich) and ileum and colon segments of ˜2 cm length were isolated and washed with Krebs-Henseleit buffer. The ends of the intestinal segments were tied, connected to a force transducer (Biopac Systems, Goleta, Calif., USA) and tissues were transferred to an organ chamber (Biopac Systems) containing Krebs-Henseleit buffer at 37° C. aerated with 95% O2, 5% CO2. Ileum and colon were stabilized for 60 min with resting tensions of 0.5 and 0.2 g respectively, and solutions were changed every 15 min. Effects of CFTRact-J027 on baseline and loperamide-suppressed isometric intestinal contractions were recorded.
In vivo intestinal transit and ex vivo intestinal contractility. Whole-gut transit time was determined using an orally administered marker (200 μL, 5% Evans Blue, 5% gum Arabic) and measuring the time of its appearance in stool. […] Effects of CFTRact-J027 on baseline and loperamide-suppressed isometric intestinal contractions were recorded.

tear fluid secretion = assay type: in vivo, mouse; conditions: wild-type mice; B074 100 μM, J027 and K089 50 μM, VX-770 10 μM, cholera toxin 0.1 μg/mL, forskolin 20 μM, IBMX 250 μM
[2] = Ocular toxicity after chronic topical dosing (slit-lamp, lissamine green staining); assay type: in vivo; conditions: chronically treated mice
Method: (§1) To assess corneal epithelial disruption, 5 μL of lissamine green (LG) dye (1%) was applied to the ocular surface of isofluorane-anesthetized mice. Photographs of the eye were taken using a Nikon Digital camera adapted to an Olympus Zoom Stereo Microscope (Olympus, Center Valley, Pa., USA). Each corneal quadrant was scored on a 3-point scale by one blinded, trained observer, with the extent of staining in each quadrant classified as: 0, no staining; 1, sporadic (involving <25% of the total surface) staining; grade 2, diffuse punctate staining (25-75%); and grade 3, coalesced punctate staining (>75%). The total grade is reported as the sum of scores from all four quadrants, ranging from 0 to 12.
as §1, with “Lissamine green staining. To” for “To”, “(≥75%).” for “(>75%).”

SMILES: Nc1ccc([N+](=O)[O-])cc1-c1nc2ccccc2n(Cc2ccccc2)c1=O [CFTRact-J027, 3-(2-amino-5-nitrophenyl)-1-benzylquinoxalin-2(1H)-one]
- effect on cellular cAMP (cellular cAMP): without causing elevation of cytoplasmic cAMP; also recorded: does not elevate cellular cAMP
- stool weight, pellet number and water content (loperamide-treated mice; 10 mg/kg ip, loperamide-treated mice, 3 h stool): normalized each of the stool parameters
- stool output and water content, oral (loperamide-treated mice; 10 mg/kg oral 1 h prior to loperamide): normalized stool output and water content; also recorded: effective in normalizing stool output and water content
- stool output and water content after chronic administration (loperamide-treated mice; 10 mg/kg oral for 7 days, loperamide 1 h after final dose): remained effective in normalizing stool output and water content
- stool output in control mice, oral (loperamide-treated mice; 10 mg/kg oral, control mice): no effect in control mice
- ED50 (loperamide-treated mice; ip, read-out: ED50, ip administration, loperamide model, ip): 2 mg/kg
- ED50 (loperamide-treated mice; po, read-out: ED50, oral administration, loperamide model, oral 1 h before loperamide): ~0.5 mg/kg
- effect on stool parameters in cystic fibrosis mice (loperamide-treated mice; cystic fibrosis mice lacking functional CFTR): without effect
- stool output and water content in control mice (loperamide-treated mice; ip, non-loperamide-treated mice): did not affect stool output or water content
- duration of effect (loperamide-treated mice; mice): 3 to 4 h
- enteroid swelling response as % of that produced by maximal (5 μM) forskolin [1]: approximately 50%
- whole-gut transit time in cystic fibrosis mice (whole-gut transit; cystic fibrosis mice): no effect on whole-gut transit time
- whole-gut transit time (whole-gut transit; loperamide-treated wild-type mice, 10 mg/kg ip): normalized
- tear fluid secretion after single topical dose (tear fluid secretion): increased tear fluid secretion by approximately two-fold for at least four hours
- LG staining of cornea and conjunctiva [2]: no corneal or conjunctival epithelial disruption
- ocular toxicity (slit-lamp evaluation) ([2]; topical three times daily, two weeks): no signs of ocular toxicity

Reference: patent US11084795B2, “CFTR regulators and methods of use thereof” (The Regents of the University of California, priority 2015, dated 2021)
